According to patent US20240398808A1, “DIHYDROFOLATE FOR HYPOGLYCEMIC ACTIVITY” (COUNCIL OF SCIENTIFIC AND INDUSTRIAL RESEARCH an india …, priority 2023, published 2024):
Marks after values point to notes of the source that are not given here.

Experiments:
rat liver homogenate = assay: In vitro glucose assay using rat liver homogenate; type: biochemical; conditions: 100 μM glucose, 25 μM or 50 μM folates, 37° C., 1 hour
Description: The glucose concentration was determined after incubation at 37° C. for 1 hour.
(A) Folates at a concentration of 25 μM. (B) Folates at 50 μM. Control represents glucose concentration without folate treatment which is considered to be 100%. The results are presented as mean±SD (n=3), and the significance of the values was analyzed by one-way ANOVA followed by Tukey's test (p<0.05). *p<0.05, **p<0.01, […], ***p<0.0001.

diabetic Wistar rats [1] = assay: Oral glucose tolerance test (OGTT) in diabetic Wistar rats; type: in vivo; conditions: for whole blood glucose values from baseline: 0-120 min
Description: Fasting blood sugar concentration was estimated.
Oral glucose tolerance test (OGTT). The test was performed by oral administration of glucose (2 g/kg body wt). Graph showing blood glucose concentration before (0 min) and 30, 60, 90, and 120 min after administration. Data are shown as the mean±SEM (n=6).

diabetic Wistar rats [2] = assay: Organ weight after long-term oral administration in diabetic Wistar rats; type: in vivo; set-up: unit not given here; conditions: mean±SD (n=6)
Description: The results are presented as mean±SD (n=6), and the significance of the values was analyzed by one-way ANOVA followed by Tukey's test (p<0.05). *p<0.05, **p<0.01, ***p<0.001, ****p<0.0001.

diabetic Wistar rats [3] = assay: Organ histology (islets of the pancreas) in diabetic Wistar rats; type: in vivo; conditions: long-term oral administration
[4] = 400 μg folate vs equimolar amounts, after 8 weeks of treatment; cited from earlier work

## CN1c2c(nc(N)[nH]c2=O)NCC1CNc1ccc(C(=O)N[C@@H](CCC(=O)O)C(=O)O)cc1 (some centres unmarked) [5-methyltetrahydrofolate]
Rat liver homogenate
  glucose concentration upon treatment: decreased
Diabetic Wistar rats [1]; OGTT
  time at which decline in whole blood glucose leveled off: about 120 minutes
  whole blood glucose values from baseline: gradual decline
Diabetic Wistar rats [2]
  Organ weight, Adipose: 2.77 ± 2.11**
  Organ weight, Brain: 1.46 ± 0.18
  Organ weight, Cecum matter: 4.33 ± 0.95
  Organ weight, Heart: 0.82 ± 0.23
  Organ weight, Kidney: 2.12 ± 0.2
  Organ weight, Liver: 8.49 ± 2.52
  Organ weight, Lungs: 1.93 ± 0.62
  Organ weight, Spleen: 0.92 ± 0.35
  Organ weight, Testes: 2.31 ± 0.79
Diabetic Wistar rats [3]
  histology of islets of the pancreas / beta cells: Moderate hypertrophy of islets of the pancreas and moderate hyperplasia of beta cells

## CN1c2c(nc(N)[nH]c2=O)NC[C@H]1CNc1ccc(C(=O)N[C@@H](CCC(=O)O)C(=O)O)cc1 [[6R,S]-5-methyltetrahydrofolate]
[4]
  serum folate concentrations compared to the folate group: ~3 fold

## Nc1nc(=O)c2c([nH]1)NCC(CNc1ccc(C(=O)N[C@@H](CCC(=O)O)C(=O)O)cc1)=N2 [dihydrofolate]
Rat liver homogenate
  glucose concentration upon treatment: decreased
Diabetic Wistar rats [1]; OGTT
  whole blood glucose values from baseline: more gradual decline
Diabetic Wistar rats [1]; oral glucose 2 g/kg body wt
  glucose tolerance: greater effect
Diabetic Wistar rats [2]
  Organ weight, Adipose: 5.43 ± 1.75*
  Organ weight, Brain: 1.64 ± .09
  Organ weight, Cecum matter: 2.72 ± 0.51
  Organ weight, Heart: 0.88 ± 0.07
  Organ weight, Kidney: 1.74 ± 0.21
  Organ weight, Liver: 10.68 ± 1.46
  Organ weight, Lungs: 2.09 ± 0.18
  Organ weight, Spleen: 1.09 ± 0.10
  Organ weight, Testes: 2.88 ± 0.27
Diabetic Wistar rats [3]
  histology of islets of the pancreas / beta cells: Severe hypertrophy of islets of the pancreas with hyperplasia of beta cells

## Nc1nc(=O)c2nc(CNc3ccc(C(=O)N[C@@H](CCC(=O)O)C(=O)O)cc3)cnc2[nH]1 [synthetic folate]
Rat liver homogenate
  glucose concentration upon treatment: no effect
Diabetic Wistar rats [1]; OGTT
  whole blood glucose values from baseline: did not show much declaim
Diabetic Wistar rats [2]
  Organ weight, Adipose: 0.87 ± 0.60****
  Organ weight, Cecum matter: 6.46 ± 1.49
  Organ weight, Heart: 0.68 ± 0.07
  Organ weight, Kidney: 2.12 ± 0.46
  Organ weight, Liver: 7.35 ± 1.02
  Organ weight, Lungs: 1.46 ± 0.38
  Organ weight, Spleen: 0.66 ± 0.08
  Organ weight, Testes: 2.57 ± 0.95
Diabetic Wistar rats [3]
  histology of islets of the pancreas / beta cells: Moderate atrophy of islets of the pancreas with apoptosis of beta cells
